From patent publication US8796256B2 (Janssen Pharmaceutica NV, priority 2010, dated 2014)

Each compound was assayed against T1, ERR1 (also known as ERR-α or ERR-1) (Homo sapiens, UniProt P11474) (assay: TR-FRET assay (disruption of co-activator peptide binding to ERR1 LBD)). Details: 6 nM 6His-ERR1LBD, 6 nM GST-SRC-2 peptide; average of 3 independent experiments.
T1 sequence (P11474 193-421 limits assumed): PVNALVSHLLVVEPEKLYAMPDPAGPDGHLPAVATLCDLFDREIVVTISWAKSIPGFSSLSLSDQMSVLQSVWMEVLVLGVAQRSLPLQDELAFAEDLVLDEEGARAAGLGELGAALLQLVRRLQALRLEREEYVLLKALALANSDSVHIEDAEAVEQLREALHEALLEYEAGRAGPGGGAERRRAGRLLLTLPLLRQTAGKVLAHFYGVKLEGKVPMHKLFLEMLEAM
Format: biochemical
Procedure, shortened: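 Homogeneous TR-FRET measuring displacement of GST-hSRC2 co-activator peptide (6 nM) from His-tagged ERR1 LBD (6 nM), detected with α-GST Eu cryptate (30 nM) and α-His-XL665 (7.5 nM). Buffer 25 mM Tris pH 8, 2.5 mM Hepes, 20 mM KCl, 1 mM DTT, 0.05 mg/mL delipidated BSA; equilibration 4-18 h at 25° C. Hyperbolic dose-response fit, mean of 3 experiments.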

| EC50 [nM] | SMILES |
| --- | --- |
| 11 | O=C1S/C(=C\c2ccc3c(c2)nnn3Cc2ccc(Cl)cc2C(F)(F)F)C(=O)N1C[C@H]1COCCN1 [Compound 267, (5Z)-5-({1-[4-Chloro-2-(trifluoromethyl)benzyl]-1H-benzotriazol-5-yl}methylidene)-3-[(3S)-morpholin-3-ylmethyl]-1,3-thiazolidine-2,4-dione] |
| 23 | CN1CC[C@@H](N2C(=O)S/C(=C\c3ccc4c(cnn4Cc4ccc(Cl)cc4C(F)(F)F)c3)C2=O)[C@H](O)C1 (relative stereo) [Compound 275, (5Z)-5-({1-[4-Chloro-2-(trifluoromethyl)-benzyl]-1H-indazol-5-yl}methylidene)-3-[trans-3-hydroxy-1-methylpiperidin-4-yl]-1,3-thiazolidine-2,4-dione] |
| 460 | CN(CCN1C(=O)S/C(=C\c2ccc3c(cnn3Cc3ccc(Cl)cc3C(F)(F)F)c2)C1=O)S(=O)(=O)c1ccc(C(F)(F)F)cc1 [Compound 395, N-{2-[(5Z)-5-({1-[4-Chloro-2-(trifluoromethyl)benzyl]-1H-indazol-5-yl}methylidene)-2,4-dioxo-1,3-thiazolidin-3-yl]ethyl}-N-methyl-4-(trifluoromethyl) benzenesulfonamide] |
| 48 | CCN1CC[C@@H](N2C(=O)S/C(=C\c3ccc4c(c3)c(C)nn4Cc3ccc(Cl)cc3C(F)(F)F)C2=O)[C@H](F)C1 (relative stereo) [Compound 334, (5Z)-5-({1-[4-Chloro-2-(trifluoromethyl)benzyl]-3-methyl-1H-indazol-5-yl}methylidene)-3-[trans-1-ethyl-3-fluoropiperidin-4-yl]-1,3-thiazolidine-2,4-dione] |
| 361 | O=C1S/C(=C\c2ccc3c(cnn3Cc3ccc(Cl)cc3C(F)(F)F)c2)C(=O)N1CCN1CCN[C@@H](CO)C1 [Compound 282, (5Z)-5-({1-[4-Chloro-2-(trifluoromethyl)benzyl]-1H-indazol-5-yl}methylidene)-3-{2-[(3R)-3-(hydroxymethyl)piperazin-1-yl]ethyl}-1,3-thiazolidine-2,4-dione] |
| 64 | CS(=O)(=O)NN1C(=O)S/C(=C\c2ccc3c(c2)c(C#N)nn3Cc2ccc(C(F)(F)F)cc2C(F)(F)F)C1=O [Compound 369, N-[(5Z)-5-({1-[2,4-Bis(trifluoromethyl)benzyl]-3-cyano-1H-indazol-5-yl}methylidene)-2,4-dioxo-1,3-thiazolidin-3-yl]methanesulfonamide] |
| 60 | O=C1S/C(=C\c2ccc3c(cnn3Cc3ccc(Cl)cc3C(F)(F)F)c2)C(=O)N1[C@@H]1CNC[C@@H]1F (relative stereo) [Compound 322, (5Z)-5-({1-[4-Chloro-2-(trifluoromethyl)benzyl]-1H-indazol-5-yl}methylidene)-3-[cis-4-fluoropyrrolidin-3-yl]-1,3-thiazolidine-2,4-dione] |
| 47 | O=C1S/C(=C\c2ccc3c(cnn3Cc3ccc(C(F)(F)F)cc3C(F)(F)F)c2)C(=O)N1O [Compound 291, (5Z)-5-({1-[2,4-Bis(trifluoromethyl)benzyl]-1H-indazol-5-yl}methylidene)-3-hydroxy-1,3-thiazolidine-2,4-dione] |
| 7 | O=C(O)CN1C(=O)S/C(=C\c2cc3cnn(Cc4ccc(Cl)cc4C(F)(F)F)c3cc2F)C1=O [Compound 348, [(5Z)-5-({1-[4-Chloro-2-(trifluoromethyl)benzyl]-6-fluoro-1H-indazol-5-yl}methylidene)-2,4-dioxo-1,3-thiazolidin-3-yl]acetic acid] |
| 71 | CN(C)C1(CN2C(=O)S/C(=C\c3ccc4c(cnn4Cc4ccc(Cl)cc4C(F)(F)F)c3)C2=O)CCC1 [Compound 315, (5Z)-5-({1-[4-Chloro-2-(trifluoromethyl)benzyl]-1H-indazol-5-yl}methylidene)-3-{[1-(dimethylamino)cyclobutyl]methyl}-1,3-thiazolidine-2,4-dione] |
| 50 | NC(=O)c1nn(Cc2ccc(Cl)cc2C(F)(F)F)c2ccc(/C=C3\SC(=O)N(CC(=O)O)C3=O)cc12 [Compound 417, [(5Z)-5-({3-Carbamoyl-1-[4-chloro-2-(trifluoromethyl)benzyl]-1H-indazol-5-yl}methylidene)-2,4-dioxo-1,3-thiazolidin-3-yl]acetic acid] |
| 67 | O=C1S/C(=C\c2ccc3c(cnn3Cc3ccc(Cl)cc3C(F)(F)F)c2)C(=O)N1[C@@H]1CCN[C@@H](CO)C1 (relative stereo) [Compound 269, (5Z)-5-({1-[4-Chloro-2-(trifluoromethyl)benzyl]-1H-indazol-5-yl}methylidene)-3-[trans-2-(hydroxymethyl)piperidin-4-yl]-1,3-thiazolidine-2,4-dione] |

Further lines, the compound ahead of its results:

| SMILES | EC50 [nM] |
| --- | --- |
| O=C1S/C(=C\c2ccc3c(cnn3Cc3ccc(Cl)cc3C(F)(F)F)c2)C(=O)N1CCN1CCCNCC1 [Compound 104, (5Z)-5-({1-[4-Chloro-2-(trifluoromethyl)benzyl]-1H-indazol-5-yl}methylidene)-3-[2-(1,4-diazepan-1-yl)ethyl]-1,3-thiazolidine-2,4-dione] | 112 |
| CC(C)C[C@H](N)CN1C(=O)S/C(=C\c2ccc3c(cnn3Cc3ccc(Cl)cc3C(F)(F)F)c2)C1=O [Compound 53, (5Z)-3-[(2S)-2-Amino-4-methylpentyl]-5-({1-[4-chloro-2-(trifluoromethyl)benzyl]-1H-indazol-5-yl}methylidene)-1,3-thiazolidine-2,4-dione] | 39 |
| O=C(O)C1CCC(N2C(=O)S/C(=C\c3ccc4c(c3)nnn4Cc3ccc(Cl)cc3C(F)(F)F)C2=O)CC1 (stereo not shown) [Compound 266, 4-[(5Z)-5-({1-[4-Chloro-2-(trifluoromethyl)benzyl]-1H-benzotriazol-5-yl}methylidene)-2,4-dioxo-1,3-thiazolidin-3-yl]cyclohexanecarboxylic acid] | 29 |
| O=C1S/C(=C\c2ccc3c(cnn3Cc3ccc(Cl)cc3C(F)(F)F)c2)C(=O)N1Cc1nccs1 [Compound 92, (5Z)-5-({1-[4-Chloro-2-(trifluoromethyl)benzyl]-1H-indazol-5-yl}methylidine)-3-(1,3-thiazol-2-ylmethyl)-1,3-thiazolidine-2,4-dione] | 24 |
| N[C@H]1CCC[C@H](CN2C(=O)S/C(=C\c3ccc4c(cnn4Cc4ccc(Cl)cc4C(F)(F)F)c3)C2=O)C1 [Compound 105, (5Z)-3-{[(1S,3S)-3-Aminocyclohexyl]methyl}-5-({1-[4-chloro-2-(trifluoromethyl)benzyl]-1H-indazol-5-yl}methylidene)-1,3-thiazolidine-2,4-dione] | 68 |
| O=C1S/C(=C\c2ccc3c(ccn3Cc3ccc(Cl)cc3C(F)(F)F)c2)C(=O)N1CCN1CCOCC1 [Compound 254, (5Z)-5-({1-[4-Chloro-2-(trifluoromethyl)benzyl]-1H-indol-5-yl}methylidene)-3-(2-morpholin-4-ylethyl)-1,3-thiazolidine-2,4-dione] | 320 |
| Nc1nc(CN2C(=O)S/C(=C\c3ccc4c(cnn4Cc4ccc(Cl)cc4C(F)(F)F)c3)C2=O)c[nH]1 [Compound 231, (5Z)-3-[(2-Amino-1H-imidazol-4-yl)methyl]-5-({1-[4-chloro-2-(trifluoromethyl)benzyl]-1H-indazol-5-yl}methylidene)-1,3-thiazolidine-2,4-dione] | 46 |
| CN(C)CCCN1C(=O)S/C(=C\c2ccc3c(cnn3Cc3ccc(C(F)(F)F)cc3C(F)(F)F)c2)C1=O [Compound 6, (5Z)-5-[(1-{[2,4-Bis(trifluoromethyl)-phenyl]methyl}-1H-indazol-5-yl)methylidene]-3-[3-(dimethylamino)-propyl]-1,3-thiazolidine-2,4-dione] | 35 |
| Cn1cnc(CC(C(=O)O)N2C(=O)S/C(=C\c3ccc4c(cnn4Cc4ccc(Cl)cc4C(F)(F)F)c3)C2=O)c1 (stereo not shown) [Compound 223, 2-[(5Z)-5-({1-[4-Chloro-2-(trifluoromethyl)benzyl]-1H-indazol-5-yl}methylidene)-2,4-dioxo-1,3-thiazolidin-3-yl]-3-(1-methyl-1H-imidazol-4-yl)propanoicacid] | 55 |
| COc1ccc(Cn2ncc3cc(/C=C4\SC(=O)N(CCN5C[C@@H](C)O[C@@H](C)C5)C4=O)ccc32)c(C(F)(F)F)c1 [Compound 21, (5Z)-3-{2-[cis-2,6-Dimethylmorpholin-4-yl]ethyl}-5-({1-[4-methoxy-2-(trifluoromethyl)benzyl]-1H-indazol-5-yl)methylidene)-1,3-thiazolidine-2,4-dione] | 9 |
| CC(C)N(CCO)CCN1C(=O)S/C(=C\c2ccc3c(cnn3Cc3ccc(Cl)cc3C(F)(F)F)c2)C1=O [Compound 45, (5Z)-5-({1-[4-Chloro-2-(trifluoromethyl)benzyl]-1H-indazol-5-yl}methylidene)-3-{2-[(2-hydroxyethyl)(1-methylethyl)amino]ethyl}-1,3-thiazolidine-2,4-dione] | 47 |
| CC[C@H](N)CN1C(=O)S/C(=C\c2ccc3c(cnn3Cc3ccc(Cl)cc3C(F)(F)F)c2)C1=O [Compound 154, 3-[(2S)-2-Aminobutyl]-(5Z)-5-({1-[4-chloro-2-(trifluoromethyl)benzyl]-1H-indazol-5-yl}methylidene)-1,3-thiazolidine-2,4-dione] | 17 |
| O=C(O)[C@@H]1C[C@@H](N2C(=O)S/C(=C\c3ccc4c(cnn4Cc4ccc(Cl)cc4C(F)(F)F)c3)C2=O)CN1 [Compound 181, (4R)-4-[(5Z)-5-({1-[4-Chloro-2-(trifluoromethyl)benzyl]-1H-indazol-5-yl}methylidene)-2,4-dioxo-1,3-thiazolidin-3-yl]-L-proline] | 25 |
